Results as given in patent publication US20110166142A1, “2-SUBSTITUTED ISOFLAVONOID COMPOUNDS, MEDICAMENTS AND USES” (priority 2007, published 2011).
Like-named read-outs stand apart in the source and are kept apart here.

Columns and labels:
MDA-MB-468 = experiment: Anti-cancer activity, breast MDA-MB-468 (MTT); type: cell-based; conditions: Homo sapiens, MDA-MB-468, 120 h, 5 days, Geometric Mean ± SD (Log-normal Distribution)
MM200 = experiment: Anti-cancer activity, melanoma MM200 (MTT); type: cell-based; conditions: 120 h, 5 days, Geometric Mean ± SD (Log-normal Distribution)
[1] = system: various cell lines representative of different cancer indications; experiment: Anti-cancer activity, summary over several cell lines; type: cell-based
Protocol: (§1) IC50 values were determined for each cell line. Cells were seeded in 96-well plates at an appropriate cell density as determined from growth kinetics analysis and cultured for 5 days in the absence and presence of the test compounds. Cell proliferation was assessed after the addition of 20 μl of 3-4,5 dimethylthiazol-2,5-diphenyl tetrazolium bromide (MTT, 2.5 mg/ml in PBS, Sigma) for 3-4 hrs at 37° C. according to manufacturer's instructions. IC50 values were calculated from semi-log plots of % of control proliferation on the y-axis against log dose on the x-axis.

[2] = system: panel of normal, non-transformed cells; experiment: Toxicity to normal cells, overall statement (NFF and RAW 264.7); type: cell-based; conditions: maximum concentration examined 150 μM
Protocol: (§2) Neonatal foreskin fibroblasts (NFF), a gift from Dr. Peter Parsons (Queensland Institute of Medical Research) were cultured in RPMI supplemented with 10% FBS (Gibco, Australia), penicillin (100 U/ml), streptomycin ([…]), L-glutamine (2 mM) and sodium bicarbonate (1.2 g/L), and cultured at 37° C. in a humidified atmosphere of 5% CO2 for 5 days. Test compounds were added in serial two-fold dilutions from 150 μM in triplicate. These assays were run twice.
(§3) In a single assay, RAW 264.7 cells were seeded in 96-well plates at an appropriate cell density as determined from growth kinetics analysis and cultured for 24 hours in the absence and presence of the test compounds. Test compounds were added in serial two-fold dilutions from 150 μM in triplicate.
(§4) Cell proliferation was assessed after the addition of 20 μl of 3-4,5 dimethylthiazol-2,5-diphenyl tetrazolium bromide (MTT, 5 mg/ml in PBS, Sigma) for 3 hrs at 37° C. according to manufacturer's instructions, by comparing mean absorbance values of test compounds with that of the control.

[3] = system: Neonatal foreskin fibroblasts (NFF); experiment: Toxicity to normal cells: neonatal foreskin fibroblasts (MTT); type: cell-based; conditions: Homo sapiens, Fibroblast, 120 h, 5 days, mean ± SD, maximum concentration 150 μM
Protocol: as §2, §4

RAW 264.7 macrophage = experiment: Toxicity to normal cells: RAW 264.7 macrophage (MTT); type: cell-based; conditions: Mus musculus, RAW264.7, 24 hours, single assay, maximum concentration 150 μM
Protocol: as §3, §4

HT-29 = experiment: Anti-cancer activity, colorectal HT-29 (MTT); type: cell-based; conditions: Homo sapiens, HT-29, 120 h, 5 days, Geometric Mean ± SD (Log-normal Distribution)
Protocol: (§5) The colon adeno-carcinoma cell line HT-29 (HTB-38™) and prostate adenocarcinoma cell line PC-3 (CRL-435™) were cultured in RPMI 1640 medium (Gibco, Cat#21870-076).
(§6) All cultures were supplemented with 10% FBS (Gibco, Cat#10099-158), 5000 U/ml penicillin and 5 mg/ml streptomycin (Gibco, Cat#15070), and cultured at 37° C. in a humidified atmosphere of 5% CO2.
as §1

[4] = Free radical scavenging (DPPH); conditions: for EC50: 0.1 mM DPPH in ethanol, 20 minutes, absorbance 517 nm, concentration causing 0.6 change in absorbance, read-out: Free radical scavenging ability EC50; for free radical scavenging activity: DPPH
Protocol: The antioxidant (free radical trapping) activity of test compounds was assessed using the stable free radical compound 2,2-diphenyl-1-picrylhydrazyl (DPPH). A stock solution of DPPH was prepared at a concentration of 0.1 mM in ethanol and mixed for 10 minutes prior to use. Test compounds at a concentration of 100 μM were reacted with DPPH for 20 minutes, after which time the absorbance at 517 nm was determined and the change in absorbance compared to a reagent blank (DPPH with ethanol alone). A dose response curve was produced for those compounds with free radical scavenging activity (ΔAbs>0.3) at 100 μM. The IC50 value was estimated as the concentration of test compound that caused a 0.6 change in absorbance (with 1.2 absorbance units representing total scavenging of the DPPH radical).

PC-3 = experiment: Anti-cancer activity, prostate PC-3 (MTT); type: cell-based; conditions: Homo sapiens, PC-3, 120 h, 5 days, Geometric Mean ± SD (Log-normal Distribution)
Protocol: as §5, §6, §1

CP70 = experiment: Anti-cancer activity, ovarian CP70 (MTT); type: cell-based; conditions: 5 days, Geometric Mean ± SD (Log-normal Distribution)
Protocol: The ovarian cancer cell line, CP70 was obtained as a gift from Dr. Gil Mor (Yale University) and routinely cultured in DMEM/Hams F-12 1:1 (Gibco, Cat#11320-082) supplemented with 10 mM HEPES (Sigma, Cat#H0887), 1× non essential amino acids (Sigma, Cat#M7145), 5.0 g/L sodium bicarbonate (Sigma, Cat#S5761), and 1 mM sodium pyruvate (Sigma, Cat#S8636).
as §6, §1

HPAC = experiment: Anti-cancer activity, pancreatic HPAC (MTT); type: cell-based; conditions: Homo sapiens, 120 h, 5 days, Geometric Mean ± SD (Log-normal Distribution)
Protocol: The human pancreatic cancer cell line, HPAC (CRL-2119) was routinely cultured in DMEM/Hams F-12 1:1 (Gibco) and supplemented with 15 mM HEPES, 0.002 mg/ml insulin (Sigma, Cat#I9278), 0.005 mg/ml transferrin (Sigma, Cat#T8158), 40 ng/ml hydrocortisone (Sigma, Cat#H0135) and 10 ng/ml epidermal growth factor (Sigma, Cat#E4269).
as §6, §1

NCI-H460 = experiment: Anti-cancer activity, lung NCI-H460 (MTT); type: cell-based; conditions: Homo sapiens, NCI-H460, 120 h, 5 days, Geometric Mean ± SD (Log-normal Distribution)
Protocol: The large cell lung cancer cell line NCI-H460 was cultured in RPMI 1640 medium additionally supplemented with 4.5 g/L glucose (Sigma, Cat#G8769), 5.0 g/L sodium pyruvate, 5 g/L sodium bicarbonate and buffered with 10 mM HEPES.
as §6, §1

LPS-induced NO synthesis = experiment: LPS-induced NO (nitrite) production in RAW 264.7 macrophages (Griess Reaction); type: cell-based, mouse; conditions: 10 μM; FIG. 3
Protocol: The mouse macrophage cell line RAW 264.7 was cultured in DMEM supplemented with foetal bovine serum (FBS), 2 mM glutamine and 50 U/ml penicillin/streptomycin (pen/strep). Cells were treated with either test compound (in 0.025% DMSO) or vehicle alone, and added one hour before 50 ng/ml LPS. After incubation for 24 hrs, culture media was collected for PGE2 or TXB2 measurement by ELISA (Cayman Chemical). The effect of test compounds at 10 μM on cell viability was examined using an MTT assay.
Nitrite concentration is a quantitative indicator of NO production (Wang et al. 2002) and was determined by the Griess Reaction (Coligan et al. 1994). Briefly, 100 μL of Griess reagent was added to 50 μL of each supernatant in duplicate in two separate assays, run as for the examination of PGE2 etc. The absorbance at 550 nm was measured, and nitrite concentrations were determined against a standard curve of sodium nitrite.

[5] = read-out: IC50 RAW 264.7 macrophage Unstimulated
[6] = read-out: IC50 RAW 264.7 macrophage with LPS
[7] = read-out: IC50 range against MDA-MB-468 and PC-3 cell lines

| Structure (SMILES) | EC50 [4] | IC50 [1, 7] | IC50 (MDA-MB-468) | IC50 (MM200) | toxicity in the tests performed [2] | IC50 [3] | IC50 (RAW 264.7 macrophage; [5]) | IC50 (RAW 264.7 macrophage; [6]) | IC50 (PC-3) | IC50 (HPAC) | IC50 (NCI-H460) | further results |
| --- | --- | --- | --- | --- | --- | --- | --- | --- | --- | --- | --- | --- |
| C=CCC1Oc2cc(O)ccc2C=C1c1ccc(O)cc1 (stereo not drawn) [Compound 1] | 22.8 µM |  | 3.25 ± 1.51 µM | 6.37 ± 1.39 µM | markedly toxic | 14.7 ± 3.05 µM | 4.7 µM | 2.2 µM | 3.96 ± 2.02 µM | 5.21 ± 1.88 µM | 6.72 ± 1.05 µM | IC50 ([1]; read-out: IC50 range against all cell lines tested): 3 to 10 µM; IC50 (HT-29): 9.36 ± 2.88 µM; IC50 (CP70; 120 h): 8.39 ± 2.8 µM |
| CCC1Oc2cc(O)ccc2C=C1c1ccc(O)cc1 (stereo not drawn) [Compound 2] |  | 2 to 29 µM | 2.41 ± 1.26 µM | 70.9 ± 1 µM | mild to moderate toxicity | 97.8 ± 1 µM | 15.2 µM | 90.6 µM | 4.14 ± 1.04 µM | 56 ± 1.03 µM |  |  |
| CC1Oc2cc(O)ccc2C=C1c1ccc(O)cc1 (stereo not drawn) [Compound 3] |  |  | 5.18 ± 1.09 µM | 69.4 ± 1.22 µM | mild to moderate toxicity | 140.3 ± 1.07 µM | 9.3 µM | 102 µM | 12 ± 1.22 µM | 59.3 ± 1.28 µM | 12.6 ± 1.1 µM | IC50 ([1]; read-out: IC50 range against CP70, MDA-MB-468, NCI-H460 and PC-3 cell lines): 5 to 13 µM; IC50 (HT-29): 110.1 ± 1.03 µM; IC50 (CP70; 120 h): 8.39 ± 1.13 µM |
| CCC1Oc2cc(O)ccc2CC1c1ccc(O)cc1 (stereo not drawn) [Compound 4] |  | 2 to 29 µM | 7.23 ± 1.07 µM |  | mild to moderate toxicity | 122.2 ± 1 µM | 28.3 µM | > 150 µM | 16.6 ± 1.08 µM | 103 ± 1.16 µM |  |  |
| Cc1c(O)ccc2c1OC(C)C(c1ccc(O)cc1)=C2 (stereo not drawn) [Compound 5] | 44.8 µM | 2 to 29 µM | 16.7 ± 1.18 µM |  | no toxicity | > 150 µM | > 150 µM | > 150 µM | 29 ± 1.05 µM | 84.4 ± 1.34 µM | 41.1 ± 1 µM |  |
| CC1Oc2cc(O)ccc2CC1c1ccc(O)cc1 (stereo not drawn) [Compound 8] |  |  | 66.3 ± 1.05 µM |  | no toxicity | > 150 µM | > 150 µM | > 150 µM | 78.7 ± 1.26 µM | ≥ 150 µM |  | activity against the cell lines tested ([1]; HPAC, MDA-MB-468 and PC-3): little activity |
| Oc1ccc(C2=Cc3ccc(O)cc3OC2O)cc1 (stereo not drawn) [Compound 16, 2,4′,7-Trihydroxy-isoflav-3-ene] |  |  |  |  |  |  |  |  |  |  |  | melting point: > 325 °C |
| CC(=O)Oc1ccc(C2=Cc3ccc(OC(C)=O)cc3OC2C#N)cc1 (stereo not drawn) [Example 17, 4′,7-Diacetoxy-2-cyano-isoflav-3-ene] |  |  |  |  |  |  |  |  |  |  |  | melting point: 156 to 158 °C |
| CC(=O)Oc1ccc(C2=Cc3ccc(OC(C)=O)cc3OC2CNC(=O)OC(C)(C)C)cc1 (stereo not drawn) [Example 23, 4′,7-Diacetoxy-2-(N—(BOC)aminomethyl)-isoflav-3-ene] |  |  |  |  |  |  |  |  |  |  |  | melting point: 52 to 54 °C |

The next lines start with results.

| EC50 [4] | IC50 [1, 7] | Structure (SMILES) | IC50 (MDA-MB-468) | IC50 (MM200) | toxicity in the tests performed [2] | IC50 [3] | IC50 (RAW 264.7 macrophage; [5]) | IC50 (RAW 264.7 macrophage; [6]) | IC50 (PC-3) | IC50 (HPAC) | IC50 (NCI-H460) | further results |
| --- | --- | --- | --- | --- | --- | --- | --- | --- | --- | --- | --- | --- |
| 49.6 µM | 14 to 32 µM | CC1Oc2cc(O)ccc2C=C1c1cccc(O)c1 (stereo not drawn) [Compound 6] | 17 ± 1 µM | 137.8 ± 1.16 µM | mild to moderate toxicity | 138.6 ± 1.05 µM | > 150 µM | 140 µM | 31.7 ± 1.05 µM | 74.6 ± 1.24 µM | 114.8 ± 1 µM | IC50 (HT-29): ≥ 150 µM; IC50 (CP70; 120 h): 72.9 ± 1.07 µM |
| 38.4 µM | 14 to 32 µM | Cc1cc(O)cc2c1C=C(c1ccc(O)cc1)C(C)O2 (stereo not drawn) [Compound 7] | 14.5 ± 1.07 µM | 102 ± 1.27 µM | mild to moderate toxicity | 126.6 ± 1.01 µM | 98.8 µM | 115 µM | 31.9 ± 1.47 µM | 60.5 ± 1.21 µM | 51.5 ± 1.03 µM | IC50 (HT-29): ≥ 150 µM; IC50 (CP70; 120 h): ~31 µM; IC50 (CP70): 31.1 ± 1.06 µM |
| 21.8 µM |  | COC1Oc2cc(O)ccc2C=C1c1ccc(O)cc1 (stereo not drawn) [Compound 13, 4′,7-Dihydroxy-2-methoxy-isoflav-3-ene] |  |  |  |  |  |  |  |  |  |  |
| 24.1 µM |  | CCOC1Oc2cc(O)ccc2C=C1c1ccc(O)cc1 (stereo not drawn) [Compound 14, 2-Ethoxy-4′,7-dihydroxy-isoflav-3-ene] |  |  |  |  |  |  |  |  |  |  |
| 20 µM |  | CCSC1Oc2cc(O)ccc2C=C1c1ccc(O)cc1 (stereo not drawn) [Compound 18, 2-Ethylthio-4′,7-dihydroxy-isoflav-3-ene] |  |  |  |  |  |  |  |  |  |  |
| 55.1 µM |  | Oc1ccc(C2=Cc3ccc(O)cc3OC2)cc1 [Compound 37-DHE, reference compound] |  |  |  |  |  |  |  |  |  | production of nitrite by macrophages stimulated by LPS (LPS-induced NO synthesis): did not inhibit; free radical scavenging activity [4]: only low activity |
| > 100 µM |  | Oc1ccc([C@H]2COc3cc(O)ccc3C2)cc1 [Eq, equol, reference compound] |  |  |  |  |  |  |  |  |  | production of nitrite by macrophages stimulated by LPS (LPS-induced NO synthesis): did not inhibit; free radical scavenging activity [4]: not active |
